According to patent publication US5482975A, “Adenosine diphosphoribose polymerase binding nitroso aromatic compounds useful as retroviral inactivating agents, anti-retroviral agents and anti-tumor agents” (priority 1993, dated 1996):

Legend:
L1210 murine leukemia = L1210 murine leukemia in vivo; set-up: species or system BDF mice; conditions: 2 mg/kg i.p. twice a day, 6 consecutive days
HIV-1 (LAV strain) = assay: HIV-1 inactivation assay in PBL cultures (FIG. 13A, B); assay type: cell-based; conditions: NOBA versus NOBP
Method: The assay was performed as described in FIG. 13A except that the 30 min. preincubation of virus with NOBA was carried out at 0>, 22° or 37° C.
An HIV-1 stock having an infectivity titer of 100,000 TCID50 was incubated for 30 min. at 22° C. with either of the drugs. Control HIV samples, containing no drugs, were incubated in the same manner. […] At the end of this incubation cultures were assayed for productive infection by an immunoassay for HIV-1 antigens and by reverse transcriptase as described in McDougal, et al., J. Immunol Methods 76:171-183 (1985). Virus titers were expressed as percentile values (percent infected cultures) compared to the controls, containing HIV dilutions which were not preincubated with the C-nitroso drugs. In a separate series of experiments, HIV-1 dilutions and C-nitroso drugs (see upper abscissa) were not preincubated but were added simultaneously to lymphocytes in exactly the same concentrations as described previously (i.e., following preincubation) and viral growth monitored 9 days later. […] Chem. Soc. 111:395-396 (1989), South, et al., Biochem Pharm. 40:123-129 (1990), Summers, et al., Biochemistry 29:329-340 (1990), the inhibition of HIV-1 propagation was profound when C-nitroso drugs were preincubated with HIV-1, whereas only negligible effect on HIV-1 growth occurred when both drugs and virus were added simultaneously. […]

Zn(HIV1-F1) = Zn(HIV1-F1) (Human immunodeficiency virus type 1 lw12.3 isolate, UniProt Q70622); assay: NMR study of Zn ejection from HIV-1 NC zinc finger peptide; assay type: biochemical; set-up: parent Gag (Gag-Pol) polyprotein
Method: The * and + symbols denote the aromatic proton signals of the zinc-coordinated and zinc-free His 9 residue. Upon completion of the reaction, reflected by complete ejection of zinc (t=90 min), 50% of the NOBA remained unreacted indicating a 1:1 reaction stoichiometry. NOBA (3-nitrosobenzamide), was synthesized described elsewhere in this application.
To determine if NOBA is capable of ejecting zinc from retroviral-type zinc fingers, NMR studies were performed on a peptide with amino acid sequence corresponding to the N-terminal CCHC zinc finger of the HIV-1 NC protein, Zn(HIV1-F1), South, et al., J. Am. Chem. Soc. 111:395-396 (1989), South, et al., Biochem Pharm. 40:123-129 (1990 ), Summers, et al., Biochemistry 29:329-340 (1990). NMR spectra of Zn(HIV-F1) were performed before and after the addition of NOBA (3-nitrosobenzamide). […] Chem Soc. 111:395-396 (1989), and three-dimensional structural studies have shown that the peptide adopts a structure that is essentially identical to the structure of the corresponding region in the intact NC protein, South, et al., Biochemistry 29:7786-7789 (1990). The down-field region of the ^1 H NMR spectrum showing the signals due to the aromatic proton of His 9 and Phe 2 is illustrated in FIG. 10 (bottom). Addition of two molar equivalents of NOBA results in the loss of the signals due to zinc-bound histidine (denoted by *) and the appearance of broad signals representative of zinc-free histidine (denoted by +). Other signals in the spectrum are due to NOBA protons. […] By comparison, a 10-fold molar excess of EDTA is required to remove zinc from Zn(HIV-1-F1), Summers, et al., J. Cell Biochem 45:41-48 (1991).

NC(=O)c1cccc(N=O)c1 [NOBA, 3-nitrosobenzamide]
in vivo chemotherapeutic response (L1210 murine leukemia): highly significant in vivo chemotherapeutic response | toxic effects in mice (L1210 murine leukemia): no toxic effects | relative depression of HIV-1 propagation (HIV-1 (LAV strain)): greater depression of HIV-1 propagation | time to complete ejection of zinc (Zn(HIV1-F1); 2 mM NOBA, 1 mM Zn(HIV1-F1), D2O, pH*=6.2, 30° C.): 90 min | NOBA remaining unreacted on completion (Zn(HIV1-F1); 2 mM NOBA, t=90 min): 50% | stoichiometry of reaction (Zn(HIV1-F1); after 90 minutes): reacts stoichiometrically with Zn(HIV1-F1) | zinc-bound His signals (Zn(HIV1-F1); two molar equivalents, after 90 min.): no signals attributable to the zinc-bound His could be detected
